# From PubChem BioAssay (NCI)
#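 96-well plates; 48 h exposure; 5 concentrations. Endpoints by linear interpolation between flanking doses. Not reached: highest tested concentration assigned. TGI: total growth inhibition.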
# How the values were obtained:
# Test in all cases: NCI tumour cell line growth inhibition, 48 h
# [1] = tested on: 786-0 renal
# [2] = tested on: A549 NSCLC
# [3] = tested on: ACHN renal
# [4] = tested on: CAKI-1 renal
# [5] = tested on: CCRF-CEM leukemia
# [6] = tested on: COLO 205 colon
# [7] = tested on: DMS 114 small cell lung
# [8] = tested on: DMS 273 small cell lung
# [9] = tested on: EKVX NSCLC
# [10] = tested on: HCC-2998 colon
# [11] = tested on: HCT-116 colon
# [12] = tested on: HCT-15 colon
# [13] = tested on: HL-60(TB) leukemia
# [14] = tested on: HOP-18 NSCLC
# [15] = tested on: HOP-62 NSCLC
# [16] = tested on: HOP-92 NSCLC
# [17] = tested on: HT29 colon
# [18] = tested on: K-562 leukemia
# [19] = tested on: KM12 colon
# [20] = tested on: KM20L2 colon
# [21] = tested on: LXFL 529 NSCLC
# [22] = tested on: M14 melanoma
# [23] = tested on: M19-MEL melanoma
# [24] = tested on: MALME-3M melanoma
# [25] = tested on: MOLT-4 leukemia
# [26] = tested on: NCI-H226 lung
# [27] = tested on: NCI-H23 lung
# [28] = tested on: NCI-H460 lung
# [29] = tested on: NCI-H522 lung
# [30] = tested on: OVCAR-3 ovarian
# [31] = tested on: OVCAR-4 ovarian
# [32] = tested on: OVCAR-8 ovarian
# [33] = tested on: RPMI-8226 leukemia
# [34] = tested on: SF-268 CNS
# [35] = tested on: SF-295 CNS
# [36] = tested on: SF-539 CNS
# [37] = tested on: SK-MEL-2 melanoma
# [38] = tested on: SK-MEL-28 melanoma
# [39] = tested on: SK-MEL-5 melanoma
# [40] = tested on: SN12C renal
# [41] = tested on: SNB-19 CNS
# [42] = tested on: SNB-75 CNS
# [43] = tested on: SR leukemia
# [44] = tested on: SW-620 colon
# [45] = tested on: TK-10 renal
# [46] = tested on: U251 CNS
# [47] = tested on: UACC-257 melanoma
# [48] = tested on: UACC-62 melanoma
# [49] = tested on: UO-31 renal
# [50] = tested on: XF 498 CNS
# [51] = tested on: DLD-1 colon
# [52] = tested on: IGROV1 ovarian
# [53] = tested on: LOX IMVI melanoma
# [54] = tested on: OVCAR-5 ovarian
# [55] = tested on: RXF-631 renal
# [56] = tested on: SK-OV-3 ovarian
# [57] = tested on: SNB-78 CNS
structure (smiles),measurement,setting,value
CCCCCCC1CCC2CCCC(C)N12 (stereo not drawn),TGI,[1],> 100 µM
same,TGI,[2],> 100 µM
same,TGI,[3],> 100 µM
same,TGI,[4],> 100 µM
same,TGI,[5],62 µM
same,TGI,[6],34.1 µM
same,TGI,[7],> 100 µM
same,TGI,[8],> 100 µM
same,TGI,[9],> 100 µM
same,TGI,[10],45.6 µM
same,TGI,[11],> 100 µM
same,TGI,[12],89.6 µM
same,TGI,[13],38.2 µM
same,TGI,[14],> 100 µM
same,TGI,[15],> 100 µM
same,TGI,[16],> 100 µM
same,TGI,[17],> 10 µM
same,TGI,[18],35.3 µM
same,TGI,[19],> 100 µM
same,TGI,[20],> 100 µM
same,TGI,[21],> 10 µM
same,TGI,[22],76.9 µM
same,TGI,[23],> 100 µM
same,TGI,[24],> 10 µM
same,TGI,[25],47.1 µM
same,TGI,[26],> 100 µM
same,TGI,[27],97.4 µM
same,TGI,[28],59.8 µM
same,TGI,[29],> 100 µM
same,TGI,[30],> 100 µM
same,TGI,[31],> 100 µM
same,TGI,[32],> 100 µM
same,TGI,[33],53.9 µM
same,TGI,[34],> 100 µM
same,TGI,[35],> 100 µM
same,TGI,[36],> 100 µM
same,TGI,[37],69.2 µM
same,TGI,[38],> 100 µM
same,TGI,[39],> 100 µM
same,TGI,[40],> 100 µM
same,TGI,[41],> 100 µM
same,TGI,[42],> 100 µM
same,TGI,[43],58.4 µM
same,TGI,[44],31.1 µM
same,TGI,[45],> 100 µM
same,TGI,[46],> 100 µM
same,TGI,[47],> 100 µM
same,TGI,[48],> 100 µM
same,TGI,[49],> 100 µM
same,TGI,[50],36.1 µM
C=C1C(=O)O[C@@H]2C[C@]3(C)[C@@H](C[C@H]12)[C@](C)(O)CC[C@@H]3O,TGI,[1],> 100 µM
same,TGI,[2],> 100 µM
same,TGI,[3],> 100 µM
same,TGI,[4],> 100 µM
same,TGI,[5],> 100 µM
same,TGI,[6],> 100 µM
same,TGI,[51],> 100 µM
same,TGI,[7],> 100 µM
same,TGI,[8],> 100 µM
same,TGI,[9],> 100 µM
same,TGI,[10],> 100 µM
same,TGI,[11],> 100 µM
same,TGI,[12],> 100 µM
same,TGI,[15],> 100 µM
same,TGI,[16],> 100 µM
same,TGI,[17],> 100 µM
same,TGI,[52],> 100 µM
same,TGI,[18],> 100 µM
same,TGI,[19],> 100 µM
same,TGI,[20],> 100 µM
same,TGI,[53],> 100 µM
same,TGI,[21],> 100 µM
same,TGI,[22],> 100 µM
same,TGI,[23],> 100 µM
same,TGI,[24],> 100 µM
same,TGI,[25],> 100 µM
same,TGI,[26],> 100 µM
same,TGI,[27],> 100 µM
same,TGI,[28],68.9 µM
same,TGI,[29],> 100 µM
same,TGI,[30],> 100 µM
same,TGI,[31],> 100 µM
same,TGI,[54],> 100 µM
same,TGI,[32],> 100 µM
same,TGI,[33],> 100 µM
same,TGI,[55],> 100 µM
same,TGI,[34],> 100 µM
same,TGI,[35],> 100 µM
same,TGI,[36],> 100 µM
same,TGI,[37],> 100 µM
same,TGI,[38],> 100 µM
same,TGI,[39],> 100 µM
same,TGI,[56],> 100 µM
same,TGI,[40],> 100 µM
same,TGI,[41],> 100 µM
same,TGI,[42],> 100 µM
same,TGI,[57],> 100 µM
same,TGI,[44],> 100 µM
same,TGI,[45],76.6 µM
same,TGI,[46],> 100 µM
same,TGI,[48],> 100 µM
same,TGI,[49],> 100 µM
same,TGI,[50],> 100 µM
